“Also recorded” adds a separate entry of the source. Where two headings read alike, the source gives them in different places.
Tested on: Ba/F3 EGFR del19/T790M/C797S cells
Assay: Ba/F3 EGFR del19/T790M/C797S cell growth inhibition test (CellTiter-Glo, 72 hours);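 also: compounds tested in tenfold steps from 10 µM down to 0.1 nM, with luminescence read on a microplate reader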
Type: cell-based
Conditions: for GI50: read-out: Ba/F3 EGFR del19/T790M/C797S cells, GI50
[1] = Ba/F3 cell line overexpressing EGFR del19/T790M/C797S, 72 hours, CellTiter-Glo

Protocol: Specifically, the cell line stored in a liquid nitrogen tank was taken out, rapidly dissolved at 37° C., and thereafter centrifuged to remove the cryopreservation medium. The recovered cell pellets were well mixed in a culture medium, put into a culture flask, and passaged under conditions of 37° C. and 5% carbon dioxide to stabilize the cells to the logarithmic growth phase. Thereafter, cells were taken from the flask, centrifuged to remove the culture medium, washed with Dulbecco's phosphate buffered saline (DPBS), and then centrifuged again to remove DPBS, and then diluted with a culture medium to have 1×10^5 cells/ml. The diluted cells were dispensed into a 96-well plate at 100 μl per well. […] The DMSO solution containing each compound was diluted with a culture medium to a concentration of 30 μM, and then tenfold serial dilution was used to prepare a solution diluted upto 0.3 nM (in order to reach a final DMSO concentration of 1% or less).
50 μl of a test solution of each compound was added each time to the 96-well plate in which the cells were dispensed, thus reaching a final concentration of 10 μM to 0.1 nM in 150 μl per well. The cells treated with the test solution were cultured under conditions of 37° C. and 5% carbon dioxide for 72 hours. After the 96-well plate in which the cells were cultured was acclimated to room temperature for 30 minutes, CellTiter-Glo® Luminescent Cell Assay Reagent (CTG, Promega) was dispensed at 50 μl per well. After stabilizing luminescence signals for 10 minutes, the luminescence intensity was measured with a microplate reader.
The GI50 value of each compound was calculated using nonlinear regression of GraphPad Prism; log[inhibitor] vs. normalized response analysis.

Molecule `CN1CCN(C2CCN(c3ccc(Nc4nc(Nc5ccccc5N(C)S(C)(=O)=O)c5c(F)c[nH]c5n4)cc3F)CC2)CC1` [Example 64, N-(2-((5-fluoro-2-((3-fluoro-4-(4-(4-methylpiperazin-1-yl)piperidin-1-yl)phenyl)amino)-7H-pyrrolo[2,3-d]pyrimidine-4-yl)amino)phenyl)-N-methylmethanesulfonamide] has a GI50 [1] of 28 nM.
Molecule `CN1CCN(c2c(F)cc(Nc3nc(Nc4ccccc4N(C)S(C)(=O)=O)c4cc[nH]c4n3)cc2F)CC1` [Example 25, N-(2-((2-((3,5-difluoro-4-(4-methylpiperazin-1-yl)phenyl)amino)-7H-pyrrolo[2,3-d]pyrimidine-4-yl)amino)phenyl)-N-methylmethanesulfonamide] has a GI50 [1] of 22 nM.
Molecule `CCN1CCN(c2ccc(Nc3nc(Nc4ccccc4N(CC)S(=O)(=O)CC)c4cc[nH]c4n3)cc2F)CC1` [Example 52] has a GI50 [1] of 119 nM.
`CN1CCN(c2ccc(Nc3nc(Nc4ccccc4N(C)S(C)(=O)=O)c4cc[nH]c4n3)c(F)c2)CC1` [Example 3, N-(2-((2-((2-fluoro-4-(4-methylpiperazin-1-yl)phenyl)amino)-7H-pyrrolo[2,3-d]pyrimidine-4-yl)amino)phenyl)-N-methylmethanesulfonamide] showed a GI50 [1] of 157 nM.
`CN(c1ccccc1Nc1nc(Nc2ccc(N3CCC4(CC3)COC4)c(F)c2)nc2[nH]ccc12)S(C)(=O)=O` [Example 40, N-(2-((2-((3-fluoro-4-(2-oxa-7-azaspiro[3.5]nonan-7-yl)phenyl)amino)-7H-pyrrolo[2,3-d]pyrimidine-4-yl)amino)phenyl)-N-methylmethanesulfonamide] was tested, and the GI50 [1] was 65 nM.
Work on `CN1CCN(c2ccc(Nc3nc(Nc4ccccc4N(C)S(=O)(=O)C4CC4)c4cc[nH]c4n3)cc2F)CC1` [Example 48, N-(2-((2-((3-fluoro-4-(4-methylpiperazin-1-yl)phenyl)amino)-7H-pyrrolo[2,3-d]pyrimidine-4-yl)amino)phenyl)-N-methylcyclopropanesulfonamide] yielded a GI50 [1] of 30 nM.
`Cc1cc(Nc2nc(Nc3ccccc3N(C)S(C)(=O)=O)c3cc[nH]c3n2)ccc1N1CCN(C)CC1` [Example 5, N-methyl-N-(2-((2-((3-methyl-4-(4-methylpiperazin-1-yl)phenyl)amino)-7H-pyrrolo[2,3-d]pyrimidine-4-yl)amino)phenyl)methanesulfonamide] gave a GI50 [1] of 31 nM.
In the case of `CN1CCN(c2ccc(Nc3nc(Nc4ccccc4N(C)S(C)(=O)=O)c4c(Cl)c[nH]c4n3)cc2F)CC1` [Example 57, N-(2-((5-chloro-2-((3-fluoro-4-(4-methylpiperazin-1-yl)phenyl)amino)-7H-pyrrolo[2,3-d]pyrimidine-4-yl)amino)phenyl)-N-methylmethanesulfonamide], the GI50 [1] is reported as 7.9 nM.
`CN1CCN(c2ccc(Nc3nc(Nc4ccccc4N(C)S(C)(=O)=O)c4nc[nH]c4n3)cc2F)CC1` [Example 66, N-(2-((2-((3-fluoro-4-(4-methylpiperazin-1-yl)phenyl)amino)-9H-purine-6-yl)amino)phenyl)-N-methylmethanesulfonamide] showed a GI50 [1] of 63 nM.
With `CN1CCN(c2ccc(Nc3nc(Nc4ccccc4N(C)S(C)(=O)=O)c4cc[nH]c4n3)cc2O)CC1` [Example 4, N-(2-((2-((3-hydroxy-4-(4-methylpiperazin-1-yl)phenyl)amino)-7H-pyrrolo[2,3-d]pyrimidine-4-yl)amino)phenyl)-N-methylmethanesulfonamide] the GI50 [1] was 453 nM.
In the case of `CCN1CCN(c2ccc(Nc3nc(Nc4ccccc4N(C)S(=O)(=O)CC)c4cc[nH]c4n3)cc2F)CC1` [Example 51, N-(2-((2-((4-(4-ethylpiperazin-1-yl)-3-fluorophenyl)amino)-7H-pyrrolo[2,3-d]pyrimidine-4-yl)amino)phenyl)-N-methylethanesulfonamide], the GI50 [1] is reported as 25 nM.
`CN1CCN(c2ccc(Nc3nc(Nc4ccccc4N(C)S(C)(=O)=O)c4cc[nH]c4n3)nc2)CC1` [Example 29, N-methyl-N-(2-((2-((5-(4-methylpiperazin-1-yl)pyridin-2-yl)amino)-7H-pyrrolo[2,3-d]pyrimidine-4-yl)amino)phenyl)methanesulfonamide] gave a GI50 [1] of 626 nM.
Molecule `CC(C)S(=O)(=O)N(C)c1ccccc1Nc1nc(Nc2ccc(N3CCN(C)CC3)c(F)c2)nc2[nH]ccc12` [Example 47, N-(2-((2-((3-fluoro-4-(4-methylpiperazin-1-yl)phenyl)amino)-7H-pyrrolo[2,3-d]pyrimidine-4-yl)amino)phenyl)-N-methylpropan-2-sulfonamide] has a GI50 [1] of 49 nM.
In the case of `Cc1cc(N2CCN(C)CC2)ccc1Nc1nc(Nc2ccccc2N(C)S(C)(=O)=O)c2cc[nH]c2n1` [Example 2, N-methyl-N-(2-((2-((2-methyl-4-(4-methylpiperazin-1-yl)phenyl)amino)-7H-pyrrolo[2,3-d]pyrimidine-4-yl)amino)phenyl)methanesulfonamide], the GI50 [1] is reported as 522 nM.
`CN1CC2(CCN(c3ccc(Nc4nc(Nc5ccccc5N(C)S(C)(=O)=O)c5cc[nH]c5n4)cc3F)CC2)C1` [Example 34, N-(2-((2-((3-fluoro-4-(2-methyl-2,7-diazaspiro[3.5]nonan-7-yl)phenyl)amino)-7H-pyrrolo[2,3-d]pyrimidine-4-yl)amino)phenyl)-N-methylmethanesulfonamide] was tested, and the GI50 [1] was 6 nM.
Molecule `CN1CCC(c2ccc(Nc3nc(Nc4ccccc4N(C)S(C)(=O)=O)c4cc[nH]c4n3)cc2F)CC1` [Example 20, N-(2-((2-((3-fluoro-4-(1-methylpiperidin-4-yl)phenyl)amino)-7H-pyrrolo[2,3-d]pyrimidine-4-yl)amino)phenyl)-N-methylmethanesulfonamide] has a GI50 [1] of 37 nM.
Molecule `CN(c1ccccc1Nc1nc(Nc2ccc(N3CCN(C4COC4)CC3)c(F)c2)nc2[nH]ccc12)S(C)(=O)=O` [Example 19] has a GI50 [1] of 112 nM.
`C=CC(=O)Nc1cc(Nc2nccc(-c3cn(C)c4ccccc34)n2)c(OC)cc1N(C)CCN(C)C` [Osimertinib, reference compound] was tested, and the “proliferation inhibitory effect in Ba/F3 cell line (in words)” value was “did not show proliferation inhibitory activity; also recorded: extremely insignificant inhibitory effect”, the GI50 (Ba/F3 EGFR-Del19/T790M/C797S, 72 h) was greater than 1000 nM and the GI50 was 1120 nM.
Work on `Cc1c[nH]c2nc(Nc3ccc(N4CCN(C)CC4)c(F)c3)nc(Nc3ccccc3N(C)S(C)(=O)=O)c12` [Example 60, N-(2-((2-((3-fluoro-4-(4-methylpiperazin-1-yl)phenyl)amino)-5-methyl-7H-pyrrolo[2,3-d]pyrimidine-4-yl)amino)phenyl)-N-methylmethanesulfonamide] yielded a GI50 [1] of 15 nM.
Work on `CN1CCC2(CC1)CN(c1ccc(Nc3nc(Nc4ccccc4N(C)S(C)(=O)=O)c4cc[nH]c4n3)cc1F)C2` [Example 37, N-(2-((2-((3-fluoro-4-(7-methyl-2,7-diazaspiro[3.5]nonan-2-yl)phenyl)amino)-7H-pyrrolo[2,3-d]pyrimidine-4-yl)amino)phenyl)-N-methylmethanesulfonamide] yielded a GI50 [1] of 95 nM.
With `CN(c1ccccc1Nc1nc(Nc2ccc(N3CCOCC3)c(F)c2)nc2[nH]ccc12)S(C)(=O)=O` [Example 12, N-(2-((2-((3-fluoro-4-morpholinophenyl)amino)-7H-pyrrolo[2,3-d]pyrimidine-4-yl)amino)phenyl)-N-methylmethanesulfonamide] the GI50 [1] was 4.2 nM.
`CN1CCN(c2ccc(Nc3nc(Nc4ccccc4N(C)S(C)(=O)=O)c4c(Cl)c[nH]c4n3)c(F)c2F)CC1` [Example 58, N-(2-((5-chloro-2-((2,3-difluoro-4-(4-methylpiperazin-1-yl)phenyl)amino)-7H-pyrrolo[2,3-d]pyrimidine-4-yl)amino)phenyl)-N-methylmethanesulfonamide] was tested, and the GI50 [1] was 93 nM.
`CCN1CCC2(CC1)CCN(c1ccc(Nc3nc(Nc4ccccc4N(C)S(C)(=O)=O)c4cc[nH]c4n3)cc1F)CC2` [Example 32, N-(2-((2-((4-(9-ethyl-3,9-diazaspiro[5.5]undecan-3-yl)-3-fluorophenyl)amino)-7H-pyrrolo[2,3-d]pyrimidine-4-yl)amino)phenyl)-N-methanesulfonamide] was tested, and the GI50 [1] was 11 nM.
For `CN(c1ccccc1Nc1nc(Nc2ccc(N3CCNCC3)c(F)c2)nc2[nH]ccc12)S(C)(=O)=O` [Example 23, N-(2-((2-((3-fluoro-4-(piperazin-1-yl)phenyl)amino)-7H-pyrrolo[2,3-d]pyrimidine-4-yl)amino)phenyl)-N-methylmethanesulfonamide], the GI50 [1] was 76 nM.
Work on `CN1CCN(c2ccc(Nc3nc(Nc4ccccc4N(C)S(C)(=O)=O)c4cc[nH]c4n3)cn2)CC1` [Example 30, N-methyl-N-(2-((2-((6-(4-methylpiperazin-1-yl)pyridin-3-yl)amino)-7H-pyrrolo[2,3-d]pyrimidine-4-yl)amino)phenyl)methanesulfonamide] yielded a GI50 [1] of 9.4 nM.
`CN1CCN(c2ccc(Nc3nc(Nc4ccccc4N(C)S(C)(=O)=O)c4cc[nH]c4n3)cc2F)CC1` [Example 7, N-(2-((2-((3-fluoro-4-(4-methylpiperazin-1-yl)phenyl)amino)-7H-pyrrolo[2,3-d]pyrimidine-4-yl)amino)phenyl)-N-methylmethanesulfonamide] was tested, and the GI50 [1] was 19 nM.
`CN1CCC2(CCN(c3ccc(Nc4nc(Nc5ccccc5N(C)S(C)(=O)=O)c5cc[nH]c5n4)cc3F)CC2)C1` [Example 33, N-(2-((2-((3-fluoro-4-(2-methyl-2,8-diazaspiro[4.5]decan-8-yl)phenyl)amino)-7H-pyrrolo[2,3-d]pyrimidine-4-yl)amino)phenyl)-N-methylmethanesulfonamide] was tested, and the GI50 [1] was 31 nM.
Molecule `CN1CCN(c2ccc(Nc3nc(Nc4ccccc4N(C4CC4)S(C)(=O)=O)c4cc[nH]c4n3)cc2F)CC1` [Example 45, N-cyclopropyl-N-(2-((2-((3-fluoro-4-(4-methylpiperazin-1-yl)phenyl)amino)-7H-pyrrolo[2,3-d]pyrimidine-4-yl)amino)phenyl)methanesulfonamide] has a GI50 [1] of 64 nM.
For `CCN(c1ccccc1Nc1nc(Nc2ccc(N3CCN(C)CC3)c(F)c2)nc2[nH]ccc12)S(C)(=O)=O` [Example 43, N-ethyl-N-(2-((2-((3-fluoro-4-(4-methylpiperazin-1-yl)phenyl)amino)-7H-pyrrolo[2,3-d]pyrimidine-4-yl)amino)phenyl)methanesulfonamide], the GI50 [1] was 37 nM.
